The values that follow come from patent US20110236316A1, “PEPTIDE TARGETING IMAGING AGENTS AND METHODS OF USE THEREOF” (University of Utah Research Foundation, priority 2008, published 2011).

For assay [1], the system named is MDA-MB-231 human breast carcinoma xenografts. Nature of the assay: In vivo MR molecular imaging in MDA-MB-231 xenografts. More on the design: species or system mice.
Assay [2] deals with HT-29 human colon carcinoma xenografts. The assay can be described thus: In vivo MR molecular imaging in HT-29 xenografts. More on the design: species or system mice. As to conditions: 0.1 mmol/kg iv. As for the experimental part:
In vivo molecular imaging of fibrin-fibronectin complexes in tumor with the targeted contrast agent and MRI was evaluated in female athymic nu/nu mice bearing HT-29 human colon carcinoma xenografts with a T1-weighted 2D spin-echo sequence. A clinical contrast agent, Gd(DTPA-BMA), was used as a control. Competitive targeting of free CLT1 peptide to CLT1-(Gd-DTPA) was also studied with coinjection of CLT1-(Gd-DTPA) and a 3-fold excess of free CLT1 peptide. A group of 3 mice were used for each contrast agent. The mice were anesthetized by intramuscular administration of a mixture of ketamine (45 mg/kg) and xylazine (6 mg/kg) for MRI. The CLT1-(Gd-DTPA) and Gd(DTPA-BMA) was intravenously injected at a dose of 0.1 mmol/kg. Contrast enhanced MR images were acquired before and after injection at 1, 10, 20, 30 and 60 minutes on a Siemens Trio 3T scanner using a human wrist coil. High resolution 3D images were acquired with a 3D FLASH sequence with 25° flip angel, TR/TE=7.8/2.7 ms, slice thickness 0.5 mm, field of view (FOV) 120 mm, voxel size 0.5×0.5×0.5 mm T1-weighted 2D axial tumor images were acquired with a 2D spin echo sequence with TR 400 ms, TE 10 ms, 90° tip angel and FOV 50 mm Mice were sacrificed 24 hours post-injection and tumor tissues were cut and fixed with 3% paraformaldehyde and embedded in paraffin. Tissue sections (4-μm thickness) were incubated in 3% H2O2 for 10 minutes to block endogenous peroxidase activity and boiled in antigen retrieval solution for 15 minutes in microwave. The sections were then incubated with primary antibody overnight and secondary antibody the second day for visualization using the ABC kit (Santa Cruz Biotechnology).
MR signal intensity was also measured and the contrast to noise ratio (CNR) in the tumor tissues was calculated as CNR=(SItissue−SImuscle)/SDnoise.

Where [3] appears, read: up to 60 minutes post-injection.

Molecules are shown by their SMILES.

Consider `CNC(=O)CN(CCN(CCN(CC(=O)[O-])CC(=O)NC)CC(=O)[O-])CC(=O)[O-].[Gd+3]` [Gd(DTPA-BMA)], for which the “tumor enhancement (T1-weighted 2D spin-echo MRI)” value in assay [1] (after 30 minutes post-injection, 0.1 mmol/kg) was “decreased significantly”. Moreover, in assay [1] (first 15 minutes post-injection, CLT1-(Gd-DTPA) 0.05 mmol/kg, Gd(DTPA-BMA) 0.1 mmol/kg), the “tumor enhancement (T1-weighted 2D spin-echo MRI)” value is listed as “Significant tumor enhancement”. The “tumor enhancement compared with CLT1-(Gd-DTPA)” value in assay [2] is “didn't show a strong tumor enhancement”. Further, in assay [2] (setting [3]), the “CNR time course, tumor inner area” value was “decreased rapidly” and the “CNR time course, tumor periphery” value is “decreased rapidly”.
